Each compound was assayed against T1, Mitogen-activated protein kinase kinase kinase 5 (Homo sapiens, UniProt Q99683) (assay: In Vitro Enzyme Activity: Reagents:Base Reaction Buffer: 20 mM Hepes (pH 7.5), 10 mM MgCl2, 1 mM EGTA, 0.02% Brij35, 0.02 mg/ml BSA, 0.1 mM Na3VO4, 2 mM DTT, 1% DMSOCompound Treatment:The test compound was formulated into a 10 mM stock solution in DMSO, which was diluted into 10 concentrations in 3-fold degression, and placed in a 384-well plate (Cyclic Olefin Copolymer LDV Echo®).Kinase Name: ASK1/MAP3K5 (Invitrogen, Carlsbad, Calif.)Type: Recombinant Human Full Length Protein, GST-taggedFinal concentration of the enzyme: 20 nMSubstrate: Myelin basic protein, MBP (Active Motif, Carlsbad, Calif.)Final concentration of the substrate: 20 μMExperimental Operations:1. The substrate was dissolved in a freshly prepared base reaction buffer.2. A desired coenzyme was added to the above substrate solution.3. The kinase was added to the substrate solution and mixed slowly.4. The solution of the test compound in DMSO was added to the kinase reaction solution and incubated at room temperature for 20 minutes.5. 33P-ATP (specific activity of 10 μCi/μl) was added to the reaction solution to initiate the reaction.6. Incubated at room temperature for 2 hours.7. A small portion of the reactants was placed onto a P-81 ion exchange filter paper.8. The filter paper was washed three times with 0.75% […] to wash off the unbound phosphate, and then the filter paper was dried.9. The radioactivity remaining on the filter paper was determined.10. Kinase activity data was expressed as the ratio of the kinase activity remaining in the test sample to the kinase activity in the vehicle (DMSO).).
T1 sequence (Q99683 whole entry): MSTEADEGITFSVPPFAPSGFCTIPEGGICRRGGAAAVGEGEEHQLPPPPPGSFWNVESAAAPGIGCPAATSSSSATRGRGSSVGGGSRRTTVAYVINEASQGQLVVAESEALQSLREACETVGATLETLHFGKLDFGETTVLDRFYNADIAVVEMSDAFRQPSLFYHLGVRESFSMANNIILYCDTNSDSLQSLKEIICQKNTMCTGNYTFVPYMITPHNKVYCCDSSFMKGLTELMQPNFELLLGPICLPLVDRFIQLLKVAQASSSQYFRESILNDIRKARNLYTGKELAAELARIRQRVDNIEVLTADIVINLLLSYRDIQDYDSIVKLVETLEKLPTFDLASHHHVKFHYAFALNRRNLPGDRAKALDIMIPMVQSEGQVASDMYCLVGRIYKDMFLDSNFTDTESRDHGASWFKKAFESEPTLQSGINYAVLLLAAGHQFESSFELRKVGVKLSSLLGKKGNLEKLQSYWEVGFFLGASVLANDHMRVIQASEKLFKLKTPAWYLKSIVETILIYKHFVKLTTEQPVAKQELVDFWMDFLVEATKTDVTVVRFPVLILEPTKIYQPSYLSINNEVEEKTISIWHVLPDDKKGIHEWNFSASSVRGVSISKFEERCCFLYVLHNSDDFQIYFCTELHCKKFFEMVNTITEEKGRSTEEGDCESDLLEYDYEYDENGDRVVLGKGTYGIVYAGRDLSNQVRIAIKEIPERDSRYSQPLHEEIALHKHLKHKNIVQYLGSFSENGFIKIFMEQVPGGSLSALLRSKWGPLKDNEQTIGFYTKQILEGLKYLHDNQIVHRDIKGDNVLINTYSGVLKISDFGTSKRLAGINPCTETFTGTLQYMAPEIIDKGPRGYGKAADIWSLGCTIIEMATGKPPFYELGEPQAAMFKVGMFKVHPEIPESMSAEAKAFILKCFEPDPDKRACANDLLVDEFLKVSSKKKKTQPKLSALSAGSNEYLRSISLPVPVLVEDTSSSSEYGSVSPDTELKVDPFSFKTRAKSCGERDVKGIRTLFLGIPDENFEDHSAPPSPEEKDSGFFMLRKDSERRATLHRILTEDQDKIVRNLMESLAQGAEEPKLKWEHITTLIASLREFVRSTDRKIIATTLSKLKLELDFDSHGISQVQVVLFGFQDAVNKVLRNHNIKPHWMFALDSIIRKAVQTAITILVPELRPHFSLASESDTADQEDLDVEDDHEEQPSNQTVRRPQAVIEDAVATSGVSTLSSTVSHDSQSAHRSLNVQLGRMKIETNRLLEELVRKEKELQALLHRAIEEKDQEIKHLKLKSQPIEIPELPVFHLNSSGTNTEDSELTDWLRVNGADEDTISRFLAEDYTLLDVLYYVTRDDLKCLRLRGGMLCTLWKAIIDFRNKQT

IC50, < 50 nM:
CCc1cn(-c2cc3c(=O)n(-c4cccc(-c5nncn5C(C)C)n4)cnc3cc2C)cn1
CC(C)n1cnnc1-c1cccc(N2CCc3cc(Cl)c(-n4cnc(C5CC5)c4)cc3C2=O)n1
CC(C)c1cc2ncn(-c3cccc(-c4nncn4C(C)C)n3)c(=O)c2cc1-n1cnc(C2CC2)c1

Source: ChEMBL document CHEMBL5727981, “ASK1 inhibitor and preparation method and use thereof” (2020)
